Test results reported in patent US8735438B2, “Substituted-aryl-2-phenylethyl-1H-imidazole compounds as subtype selective modulators of alpha 2B and/or alpha 2C adrenergic receptors” (Allergan, Inc., priority 2008, dated 2014).
Like-named read-outs stand apart in the source and are kept apart here.

Tests used:
Type in all cases: cell-based
alpha 2A receptor = target: T1, alpha 2A receptor (Homo sapiens, UniProt P08913); experiment: RSAT (Receptor Selection and Amplification Technology) assay, alpha 2A; settings: NIH-3T3 cells cotransfected with receptor and Gq/i5; ratio of maximal effect to that of standard full agonist brimonidine (UK14304)
T1 construct: expressed in transfected cells; host or cells: NIH-3T3 cells
T1 sequence (P08913 1-465): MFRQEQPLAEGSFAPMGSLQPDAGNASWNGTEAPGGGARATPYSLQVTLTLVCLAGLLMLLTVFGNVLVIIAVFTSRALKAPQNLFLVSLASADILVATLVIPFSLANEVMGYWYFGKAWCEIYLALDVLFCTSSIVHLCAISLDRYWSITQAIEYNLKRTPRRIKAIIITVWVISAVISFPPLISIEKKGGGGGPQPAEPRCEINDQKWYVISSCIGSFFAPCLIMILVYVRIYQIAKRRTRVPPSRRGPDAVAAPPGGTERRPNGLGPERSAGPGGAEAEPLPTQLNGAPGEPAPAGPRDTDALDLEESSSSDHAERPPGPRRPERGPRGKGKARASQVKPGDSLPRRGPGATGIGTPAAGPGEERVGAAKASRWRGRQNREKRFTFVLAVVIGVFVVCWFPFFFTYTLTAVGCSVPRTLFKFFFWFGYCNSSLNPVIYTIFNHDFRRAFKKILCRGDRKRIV
Text: The compounds disclosed herein are agonists of alpha 2B/2C adrenergic receptors. […] 76, pp. 308-311 (incorporated herein by reference) and is also described below. Another reference pertinent to this assay is Conklin et al. (1993) Nature 363: 274-6, also incorporated herein by reference.
(§1) The RSAT assay measures a receptor-mediated loss of contact inhibition that results in selective proliferation of receptor-containing cells in a mixed population of confluent cells. The increase in cell number is assessed with an appropriate transfected marker gene such as β-galactosidase, the activity of which can be easily measured in a 96-well format. Receptors that activate the G protein, Gq, elicit this response. Alpha 2 receptors, which normally couple to Gi, activate the RSAT response when coexpressed with a hybrid Gq protein that has a Gi receptor recognition domain, called Gq/i5.
(§2) NIH-3T3 cells are plated at a density of 2×10^6 cells in 15 cm dishes and maintained in Dulbecco's modified Eagle's medium supplemented with 10% calf serum. One day later, cells are cotransfected by calcium phosphate precipitation with mammalian expression plasmids encoding p-SV-β-galactosidase (5-10 μg), receptor (1-2 μg) and G protein (1-2 μg). 40 μg salmon sperm DNA may also be included in the transfection mixture. Fresh media is added on the following day and 1-2 days later, cells are harvested and frozen in 50 assay aliquots. Cells are thawed and 100 μl added to 100 μl aliquots of various concentrations of drugs in triplicate in 96-well dishes. Incubations continue 72-96 hr at 37° C. After washing with phosphate-buffered saline, .E-backward.-galactosidase enzyme activity is determined by adding 200 μl of the chromogenic substrate (consisting of 3.5 mM o-nitrophenyl-beta-D-galactopyranoside and 0.5% nonidet P-40 in phosphate buffered saline), incubating overnight at 30° C. and measuring optical density at 420 nm. The absorbance is a measure of enzyme activity, which depends on cell number and reflects a receptor-mediated cell proliferation. The efficacy or intrinsic activity is calculated as a ratio of the maximal effect of the drug to the maximal effect of a standard full agonist for each receptor subtype. Brimonidine, also called UK14304, the chemical structure of which is shown below, is used as the standard agonist for the alpha 2A, alpha 2B and alpha 2C receptors.

alpha 2C receptor = target: T2, alpha 2C receptor (Homo sapiens, UniProt P18825); experiment: RSAT (Receptor Selection and Amplification Technology) assay, alpha 2C; settings: for Alpha 2C intrinsic activity (efficacy), value in parentheses: ratio of maximal effect to that of standard full agonist brimonidine (UK14304)
T2 construct: expressed in transfected cells; host or cells: NIH-3T3 cells
T2 sequence (P18825 1-462): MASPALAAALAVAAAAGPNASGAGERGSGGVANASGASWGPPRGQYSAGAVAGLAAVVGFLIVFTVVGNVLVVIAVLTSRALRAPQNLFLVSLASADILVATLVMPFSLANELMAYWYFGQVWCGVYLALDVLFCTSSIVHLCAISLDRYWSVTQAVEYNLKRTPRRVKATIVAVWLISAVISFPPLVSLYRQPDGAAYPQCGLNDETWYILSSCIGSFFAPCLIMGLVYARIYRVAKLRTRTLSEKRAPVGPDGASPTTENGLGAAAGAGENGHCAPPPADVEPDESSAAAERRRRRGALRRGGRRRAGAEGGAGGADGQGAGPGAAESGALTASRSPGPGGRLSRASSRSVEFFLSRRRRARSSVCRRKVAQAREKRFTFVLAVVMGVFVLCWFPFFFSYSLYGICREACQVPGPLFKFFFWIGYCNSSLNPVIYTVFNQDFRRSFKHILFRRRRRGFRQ
Protocol: as §1, §2

alpha 2B receptor = target: T3, alpha 2B receptor (Homo sapiens, UniProt P18089); experiment: RSAT (Receptor Selection and Amplification Technology) assay, alpha 2B; settings: for Alpha 2B intrinsic activity (efficacy), value in parentheses: ratio of maximal effect to that of standard full agonist brimonidine (UK14304)
T3 construct: expressed in transfected cells; host or cells: NIH-3T3 cells
T3 sequence (P18089 1-450): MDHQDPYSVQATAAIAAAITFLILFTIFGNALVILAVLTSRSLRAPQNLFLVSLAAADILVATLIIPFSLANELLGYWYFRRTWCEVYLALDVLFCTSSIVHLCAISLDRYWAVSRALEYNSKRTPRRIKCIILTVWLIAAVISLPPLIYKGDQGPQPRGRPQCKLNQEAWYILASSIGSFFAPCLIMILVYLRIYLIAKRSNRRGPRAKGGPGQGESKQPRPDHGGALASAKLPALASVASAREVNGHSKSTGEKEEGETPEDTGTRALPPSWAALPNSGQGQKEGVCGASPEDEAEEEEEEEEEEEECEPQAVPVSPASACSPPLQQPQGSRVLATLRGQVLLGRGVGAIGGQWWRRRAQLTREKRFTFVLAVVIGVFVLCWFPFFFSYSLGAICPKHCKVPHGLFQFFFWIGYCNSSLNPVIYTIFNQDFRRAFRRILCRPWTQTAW
Protocol: as §1, §2

[1] = NIH-3T3 cells cotransfected with receptor and Gq/i5
[2] = NIH-3T3 cells cotransfected with receptor and Gq/i5, read-out: Alpha 2B potency nM (EC50)

SMILES | Alpha 2A intrinsic activity (efficacy), value in parentheses (alpha 2A receptor) | EC50 (alpha 2C receptor) [nM] | Alpha 2C intrinsic activity (efficacy), value in parentheses (alpha 2C receptor; [1]) | EC50 (alpha 2B receptor) [nM] | Alpha 2B intrinsic activity (efficacy), value in parentheses (alpha 2B receptor; [1]) | EC50 (alpha 2C receptor; NIH-3T3 cells cotransfected with receptor and Gq/i5, read-out: Alpha 2C potency nM (EC50)) [nM] | EC50 (alpha 2B receptor; [2]) [nM]
Cc1cccc(C(Cc2ccccc2)c2c[nH]cn2)c1C (stereo not shown) | No Data (.28) | 26 | .36 | 2.09 | 1.01 | – | –
Clc1cccc(C(Cc2ccccc2)c2c[nH]cn2)c1Cl (stereo not shown) | No Data (.21) | – | .41 | – | .97 | 41 | 8.4
Fc1cccc(C(Cc2ccccc2)c2c[nH]cn2)c1F (stereo not shown) | No Data (.04) | – | No Data (.17) | – | .53 | – | 4.4
Cc1ccccc1C(Cc1ccccc1)c1c[nH]cn1 (stereo not shown) | No Data (.10) | – | No Data (.21) | – | .69 | – | 101
Fc1ccccc1C(Cc1ccccc1)c1c[nH]cn1 (stereo not shown) | No Data (.04) | – | No Data (.18) | 3.5 | .43 | – | –
c1ccc(CC(c2ccccc2)c2c[nH]cn2)cc1 (stereo not shown) | No Data (.05) | – | No Data (.10) | 2.8 | .69 | – | –
c1ccc(CC(c2ccncc2)c2c[nH]cn2)cc1 (stereo not shown) | No Data (.02) | – | No Data (.09) | 66 | .74 | – | –
Clc1cccc(/C(=C/c2ccccc2)c2c[nH]cn2)c1 | No Data (.09) | – | No Data (.19) | 7.8 | .80 | – | –
